# Source: PMC5787466, “Accelerated bottom-up drug design platform enables the discovery of novel stearoyl-CoA desaturase 1 inhibitors for cancer therapy” (Oncotarget, 2017)
# Key:
# Caki2 = test: Proliferation dose-response IC50, Caki2; type: cell-based; details: Homo sapiens, CAKI-2; proliferative IC50, linear regression modeling of dose-response
# Description: (§1) Error bars indicate standard deviation for n=2 replicates. […] To evaluate inhibition of SCD1 by these molecules, we used LC/MS to quantify changes in SCD1-catalyzed conversion of stearoyl-CoA to oleoyl-CoA in response to drug treatments in vitro using SCD1 protein extracted from murine liver (Figure 3c, Supplementary Figure 2g). […] Synthesis routes and spectral data including NMR and MS are also provided (Supplementary Figures 3-6).
# Cells were seeded at 5,000 cells/well in clear-bottom 96-well plates in triplicate. Drug treatment was applied at 1:1000 in reduced serum conditions (3%). […] Alternatively, cells were plated 2x10^5/well in 12-well plates (Genesee Scientific) in triplicate prior to drug treatment. After 120-hour treatment, cell number was established using a Coulter Particle Counter (Beckman). Oleic acid-albumin (Sigma Aldrich) was added to media at 5µM, and was applied adjuvant to drug treatment. Drug stocks were prepared in DMSO (Sigma) at 1000x. IC50 dosing per cell line was calculated using CalcuSyn analytical software.
# [1] = molecular target: T1, SCD1 protein extracted from murine liver (Mus musculus, UniProt P13516); test: In vitro SCD1 enzymatic inhibition by LC/MS (stearoyl-CoA to oleoyl-CoA, liver microsomes); type: biochemical; details: n=2
# T1 construct: Microsomes were isolated from murine liver using Microsome Isolation Kit (BioVision); from tissue; host or cells: murine liver microsomes
# T1 sequence (P13516 1-355): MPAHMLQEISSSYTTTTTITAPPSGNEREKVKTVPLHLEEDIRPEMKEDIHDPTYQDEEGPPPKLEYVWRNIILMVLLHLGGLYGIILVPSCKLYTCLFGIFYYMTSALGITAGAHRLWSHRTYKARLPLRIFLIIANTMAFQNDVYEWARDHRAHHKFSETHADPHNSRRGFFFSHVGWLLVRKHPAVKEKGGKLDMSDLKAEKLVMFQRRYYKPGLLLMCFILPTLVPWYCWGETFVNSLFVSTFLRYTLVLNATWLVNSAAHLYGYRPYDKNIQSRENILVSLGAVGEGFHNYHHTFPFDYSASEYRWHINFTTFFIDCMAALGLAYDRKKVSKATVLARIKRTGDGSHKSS
# Description: as §1, with “After synthesis feasibility and cost analysis, we synthesized 38 of the selected compounds.” for “Error bars indicate standard deviation for n=2 replicates.”
# Microsomes were isolated from murine liver using Microsome Isolation Kit (BioVision) per the manufacturer protocol. […] To quantify biotransformation of ^13C18-stearoyl CoA to ^13C18-oleoyl CoA for drug treatments relative to vehicle controls, supernatants were evaluated using the LC/MS^2 acyl CoA quantitation method of Magnes et al. and adapting selected reaction monitoring (SRM) for isotope-labeled acyl CoAs. […] SRM signal areas for isotope-labeled acyl CoAs were measured relative to the heptadecanoyl CoA I.S. using XCalibur software (Thermo), and percent enzyme inhibition determined by comparing ^13C18-oleoyl CoA quantities between treatment and DMSO control assays. […]
# [2] = Tolerability of chronic treatment in tumor-bearing animals; type: in vivo, athymic nude mice
# Description: Chronic treatment at the highest dose in tumor-bearing animals appeared to be well tolerated, with ‹10% reduction in body mass even at the highest dose of 600mg/kg after 4.5 weeks of daily treatment (Supplementary Figure S9d).
# A498 cells were injected subcutaneously in the flank of athymic nude mice at 1x10^6/mouse. Once tumor burden reached >50mm^3, SSI-4 treatment was administered at 60, 180, or 600 mg/kg in custom AIN76 animal chow (Research Diets, Inc.), given continuously for 4.5 weeks. Tumor burden was measured using calipers. For the lung tumor study, 2 million ACHN- pSIN Luc Ub Emerald GFP cells were injected intravenously in 50µL of PBS in athymic nude mice. 54 days after implantation, animals began SSI-4 treatment (180 mg/kg, chow, continuous) for 28 days. Once therapy was completed, lung tissue was harvested and analyzed for tumor burden via ex vivo bioluminescent imaging, and hematoxylin and eosin (H&E) staining of formalin-fixed, paraffin-embedded lung tissue. 20× images were obtained using Scanscope XT and Imagescope software.
# Supplementary Figure 9: Patient survival correlated with SCD1 gene expression. […] (d) Change in body weight (BW) corrected for individual total weight, recorded during in vivo dose-response to SSI-4 in A498 xenograft model (Figure 3g). […]
smiles,measurement,setting,value
CNC(=O)c1ccnc(NC(=O)N2CCC(Oc3ccccc3Cl)CC2)c1 [SSI-4],IC50,Caki2,0.009 µM
same,IC50,[1],1.9 nM
same,primary adverse events,[2]; reversible upon discontinuation of therapy,Ocular changes including bilateral squinting
same,reduction in body mass,"[2]; tumor-bearing animals, 600mg/kg, 4.5 weeks of daily treatment",< 10%
